Key:
[1] = tested on: taxadiene synthesis by strain 26; experiment: Effect of externally-introduced indole on taxadiene production; assay type: cell-based, E. coli
Excerpt: (§1) FIGS. 15A-15C. Impact of metabolite byproduct Indole accumulation on taxadiene production and growth. […] Strains 26 to 28 and 30 to 32, all with chromosomally integrated upstream pathway expression, were chosen for consistent comparison. The two sets of strains differ only in the expression of the downstream pathway with the second set (30 to 32) having twice the level of expression of the first. In strains 26 to 28 and 30 to 32, upstream expression increased by changing the promoters from Trc, to T5 and T7, respectively. […] The fold improvements are relative to strain 25 and 29, respectively, for the two sets. […] Different concentrations of indole were introduced into cultures of cells cultured in minimal media with 0.5% yeast extract. […] Data are mean+/−SD for three replicates. Strains devoid of the downstream pathway and with different strengths of the upstream pathway (1, 2, 6, 21, 40 and 100) were selected.

[2] = tested on: engineered strains of E. coli; experiment: Effect of externally-introduced indole on cell growth; assay type: cell-based
Excerpt: as §1

## c1ccc2[nH]ccc2c1 [indole]
[1]; exogenous indole (FIG. 15B)
  exogenous indole level at which taxadiene synthesis is severely inhibited: > 100 mg/L
[1]; indole concentration increased from 50 mg/L to 100 mg/L, minimal media with 0.5% yeast extract (FIG. 15B)
  effect on taxadiene production: significantly reduced
[2]; further increasing the indole concentration, level of inhibition very strain dependent (FIG. 15C)
  effect on cell growth: inhibited cell growth
[2]; strain 26, the high taxadiene producer (FIG. 15C)
  effect on cell growth of strain 26 compared with strains devoid of the downstream pathway: strongest inhibition

Source: patent US10633675B2, “Microbial engineering for the production of chemical and pharmaceutical products from the isoprenoid pathway” (priority 2009, dated 2020)
